Assay results: patent publication US6355799B1, “Substituted benzene compounds, process for their preparation, and herbicidal and defoliant compositions containing them” (ISK Americas Incorporated, priority 1997, dated 2002)

Key:
Format in all cases: in vivo
[1] = test system: green foxtail (Setaria viridis, SETVI); assay: Post-emerge test, greenhouse herbicide activity screening; settings: rating scale 0-100 (0 no damage, 100 complete death), 14 days after application
Method in brief: (§1)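 Compounds in acetone were track-sprayed at 187 l/ha, 15–1000 g ai/ha, onto sandy loam pots. Pre-emerge seeds were sown one day before spraying, with surface watering afterwards. Post-emerge plants were at the 2–3 leaf stage and sprayed with 0.25% v/v non-ionic surfactant. Injury was rated 0–100 at 14 days.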

[2] = test system: sicklepod (Cassia obtusifolia, CASOB); assay: as above; settings: rating scale 0-100 (0 no damage, 100 complete death), 14 days after application
Method in brief: as §1

[3] = test system: large crabgrass (Digitaria sanguinalis, DIGSA); assay: as above; settings: rating scale 0-100 (0 no damage, 100 complete death), 14 days after application
Method in brief: as §1

[4] = test system: redroot pigweed (Amaranthus retroflexus, AMARE); assay: as above; settings: rating scale 0-100 (0 no damage, 100 complete death), 14 days after application
Method in brief: as §1

[5] = test system: velvetleaf (Abutilon theophrasti, ABUTH); assay: as above; settings: rating scale 0-100 (0 no damage, 100 complete death), 14 days after application
Method in brief: as §1

[6] = test system: lambsquarters (Chenopodium album, CHEAL); assay: as above; settings: rating scale 0-100 (0 no damage, 100 complete death), 14 days after application
Method in brief: as §1

[7] = test system: johnsongrass (Sorghum halepense, SORHA); assay: as above; settings: rating scale 0-100 (0 no damage, 100 complete death), 14 days after application
Method in brief: as §1

[8] = test system: ivyleaf morningglory (Ipomoea hederacea, IPOHE); assay: as above; settings: rating scale 0-100 (0 no damage, 100 complete death), 14 days after application
Method in brief: as §1

[9] = test system: barnyardgrass (Echinochloa crus-galli, ECHCG); assay: as above; settings: rating scale 0-100 (0 no damage, 100 complete death), 14 days after application
Method in brief: as §1

[10] = test system: redroot pigweed (Amaranthus retroflexus, AMARE); assay: Pre-emerge test, greenhouse herbicide activity screening; settings: rating scale 0-100, 14 days after application
Method in brief: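 Sandy loam pots; pre-emerge: sown 1 d pre-spray, surface-watered after, then bottom-watered. Post-emerge: sown 8–21 d before, 2–3 leaf stage, + 0.25% v/v NIS, bottom-watered. Acetone, 187 l/ha track spray, 15–1000 g ai/ha. 0–100 injury score, day 14.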

[11] = test system: field corn (Zea mays L., var. Dekalb 535, CORN); assay: Post-emerge test, crop safety; settings: rating scale 0-100 (0 no damage, 100 complete death), 14 days after application
Method in brief: as §1

[12] = test system: upland rice (Oryza sp., var. Tebonnet, RICE); assay: Post-emerge test, crop safety; settings: rating scale 0-100 (0 no damage, 100 complete death), 14 days after application
Method in brief: as §1

[13] = test system: green foxtail (Setaria viridis, SETVI); assay: Pre-emerge test, greenhouse herbicide activity screening; settings: rating scale 0-100, 14 days after application
Method in brief: as §1

[14] = test system: sicklepod (Cassia obtusifolia, CASOB); assay: as above; settings: rating scale 0-100, 14 days after application
Method in brief: as §1

[15] = test system: large crabgrass (Digitaria sanguinalis, DIGSA); assay: as above; settings: rating scale 0-100, 14 days after application
Method in brief: as §1

[16] = test system: velvetleaf (Abutilon theophrasti, ABUTH); assay: as above; settings: rating scale 0-100, 14 days after application
Method in brief: as §1

[17] = test system: lambsquarters (Chenopodium album, CHEAL); assay: as above; settings: rating scale 0-100, 14 days after application
Method in brief: as §1

[18] = test system: johnsongrass (Sorghum halepense, SORHA); assay: as above; settings: rating scale 0-100, 14 days after application
Method in brief: as §1

[19] = test system: ivyleaf morningglory (Ipomoea hederacea, IPOHE); assay: as above; settings: rating scale 0-100, 14 days after application
Method in brief: as §1

[20] = test system: barnyardgrass (Echinochloa crus-galli, ECHCG); assay: as above; settings: rating scale 0-100, 14 days after application
Method in brief: as §1

[21] = test system: field corn (Zea mays L., var. Dekalb 535, CORN); assay: Pre-emerge test, crop safety; settings: rating scale 0-100, 14 days after application
Method in brief: (§2)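 Plants grown in 10 cm pots of sandy loam mix received acetone-dissolved compounds through a moving flat-fan nozzle. Doses ranged from 15 to 1000 g ai/ha. Pre-emerge pots were seeded one day earlier, post-emerge pots 8–21 days earlier. Fourteen days on, each pot was graded 0–100 for damage.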

[22] = test system: upland rice (Oryza sp., var. Tebonnet, RICE); assay: Pre-emerge test, crop safety; settings: rating scale 0-100, 14 days after application
Method in brief: as §2

COc1c(Cl)cc(F)c(-n2c(=O)cc(C(F)(F)F)n(C)c2=O)c1CC(Cl)C(=O)OCCOc1ccccc1 (single isomer, unassigned) [14-28]
Post-emerge Herbicidal Activity, phytotoxicity rating SETVI ([1]; Rate 63 g ai/ha): 0
Post-emerge Herbicidal Activity, phytotoxicity rating SETVI ([1]; Rate 250 g ai/ha): 30
Post-emerge Herbicidal Activity, phytotoxicity rating CASOB ([2]; Rate 63 g ai/ha): 30
Post-emerge Herbicidal Activity, phytotoxicity rating CASOB ([2]; Rate 250 g ai/ha): 30
Post-emerge Herbicidal Activity, phytotoxicity rating DIGSA ([3]; Rate 63 g ai/ha): 20
Post-emerge Herbicidal Activity, phytotoxicity rating DIGSA ([3]; Rate 250 g ai/ha): 50
Post-emerge Herbicidal Activity, phytotoxicity rating AMARE ([4]; Rate 63 g ai/ha): 90
Post-emerge Herbicidal Activity, phytotoxicity rating AMARE ([4]; Rate 250 g ai/ha): 100
Post-emerge Herbicidal Activity, phytotoxicity rating ABUTH ([5]; Rate 63 g ai/ha): 100
Post-emerge Herbicidal Activity, phytotoxicity rating ABUTH ([5]; Rate 250 g ai/ha): 100
Post-emerge Herbicidal Activity, phytotoxicity rating CHEAL ([6]; Rate 63 g ai/ha): 95
Post-emerge Herbicidal Activity, phytotoxicity rating CHEAL ([6]; Rate 250 g ai/ha): 100
Post-emerge Herbicidal Activity, phytotoxicity rating SORHA ([7]; Rate 63 g ai/ha): 0
Post-emerge Herbicidal Activity, phytotoxicity rating SORHA ([7]; Rate 250 g ai/ha): 50
Post-emerge Herbicidal Activity, phytotoxicity rating IPOHE ([8]; Rate 63 g ai/ha): 50
Post-emerge Herbicidal Activity, phytotoxicity rating IPOHE ([8]; Rate 250 g ai/ha): 70
Post-emerge Herbicidal Activity, phytotoxicity rating ECHCG ([9]; Rate 63 g ai/ha): 100
Post-emerge Herbicidal Activity, phytotoxicity rating ECHCG ([9]; Rate 250 g ai/ha): 100
Pre-emerge herbicidal activity, phytotoxicity rating AMARE ([10]; 63 g ai/ha): 90
Pre-emerge herbicidal activity, phytotoxicity rating AMARE ([10]; 250 g ai/ha): 100
Post-emerge phytotoxicity rating CORN (crop damage) ([11]; Rate 63 g ai/ha): 10
Post-emerge phytotoxicity rating CORN (crop damage) ([11]; Rate 250 g ai/ha): 70
Post-emerge phytotoxicity rating RICE (crop damage) ([12]; Rate 63 g ai/ha): 0
Post-emerge phytotoxicity rating RICE (crop damage) ([12]; Rate 250 g ai/ha): 40
Pre-emerge herbicidal activity, phytotoxicity rating SETVI ([13]; 63 g ai/ha): 0
Pre-emerge herbicidal activity, phytotoxicity rating SETVI ([13]; 250 g ai/ha): 0
Pre-emerge herbicidal activity, phytotoxicity rating CASOB ([14]; 63 g ai/ha): 0
Pre-emerge herbicidal activity, phytotoxicity rating CASOB ([14]; 250 g ai/ha): 0
Pre-emerge herbicidal activity, phytotoxicity rating DIGSA ([15]; 63 g ai/ha): 0
Pre-emerge herbicidal activity, phytotoxicity rating DIGSA ([15]; 250 g ai/ha): 100
Pre-emerge herbicidal activity, phytotoxicity rating ABUTH ([16]; 63 g ai/ha): 0
Pre-emerge herbicidal activity, phytotoxicity rating ABUTH ([16]; 250 g ai/ha): 80
Pre-emerge herbicidal activity, phytotoxicity rating CHEAL ([17]; 63 g ai/ha): 0
Pre-emerge herbicidal activity, phytotoxicity rating CHEAL ([17]; 250 g ai/ha): 95
Pre-emerge herbicidal activity, phytotoxicity rating SORHA ([18]; 63 g ai/ha): 0
Pre-emerge herbicidal activity, phytotoxicity rating SORHA ([18]; 250 g ai/ha): 40
Pre-emerge herbicidal activity, phytotoxicity rating IPOHE ([19]; 63 g ai/ha): 0
Pre-emerge herbicidal activity, phytotoxicity rating IPOHE ([19]; 250 g ai/ha): 0
Pre-emerge herbicidal activity, phytotoxicity rating ECHCG ([20]; 63 g ai/ha): 0
Pre-emerge herbicidal activity, phytotoxicity rating ECHCG ([20]; 250 g ai/ha): 20
Pre-emerge phytotoxicity rating, crop damage CORN ([21]; 63 g ai/ha): 0
Pre-emerge phytotoxicity rating, crop damage CORN ([21]; 250 g ai/ha): 20
Pre-emerge phytotoxicity rating, crop damage RICE ([22]; 63 g ai/ha): 0
Pre-emerge phytotoxicity rating, crop damage RICE ([22]; 250 g ai/ha): 0
